Measured values published in patent US10973821B2, “Pharmaceutical formulation” (priority 2016, dated 2021).

How the values were obtained:
[1] = in vivo PK studies in rats (single dose IV and p.o.); details: rat, 10 mg/kg
Experimental: Various formulations were investigated in in vivo PK studies in rats to determine the optimal oral formulation for dosing to animals and humans.
The compound of Formula I was administered to rats by IV at a dosage of 10 mg/kg. The vehicle comprised 15% hydroxypropyl beta cyclodextrin (Kelptose HPB parenteral grade), 5% DMSO and water for injection. The formulation was filtered using a ≤0.22 μm polyethersulfone (PES) membrane filter prior to use. The dose volume administered was 5 mL/kg. 0.2 mL blood samples from the sublingal vein under isoflurane anaesthesia were obtained 5 minutes after IV administration and stored in EDTA. Plasma was separated by centrifugation (1500×g, 10 mins, ca. 4° C.) and was frozen at −70° C. prior to analysis. Analysis to calculate plasma concentration of the compound of Formula I was conducted by LC-MS/MS. […] The AUCIV value was subsequently used to calculate the bioavailability of example oral formulations as described above.
A crystalline sample of the compound of Formula I was formulated in PEG300. The formulation was dosed p.o. (gavage) to rats at 10 mg/kg (dose volume=5 mL/kg). 0.2 mL blood samples from the sublingal vein under isoflurane anaesthesia were obtained 15 minutes after oral administration and stored in EDTA. Samples were then taken 0.5, 1, 2, 4, 8, 12 and 24 hours post-dose.

[2] = in vivo PK studies in cynomolgus monkeys (single dose IV and p.o.); details: both sexes, cynomolgus monkey, 10 mg/kg
Experimental: Various formulations were investigated in in vivo PK studies in cynomolgus monkeys to determine the optimal oral formulation for dosing to animals and humans.
The compound of Formula I was administered to male and female cynomolgus monkeys by IV at a dosage of 10 mg/kg. The IV formulation was as described in Example 3. […] The AUCIV value was subsequently used to calculate the bioavailability of example oral formulations as described above.
Studies were conducted using Formulation 2 as described above. The compound of Formula I was administered p.o. to male and female cynomolgus monkeys at a dose level of 10 mg/kg. (dose volume 5 mL/kg). 2 mL blood samples were obtained 5 minutes via femoral puncture (vein/artery) into commercially available K2EDTA tubes using 23G needles coupled to a suitable syringe. Samples were taken 0.25, 0.5, 1, 2, 4, 8, 12 and 24 hours after administration of the formulation. Blood samples were kept on ice until centrifugation at 1600×g (10 mins, ca. 5° C.) to separate plasma. Analysis to calculate plasma concentration of the compound of Formula I was conducted by LC-MS/MS.
Studies were conducted using Formulation 5 as described in Example 3. […]

A. niger = details: cited from earlier work
A. fumigatus [3] = details: cited from earlier work
A. terreus = details: cited from earlier work
A. flavus = details: cited from earlier work
A. terreus 49 = details: cited from earlier work
A. fumigatus 210 = details: cited from earlier work
S. apiospermum 13486 = details: cited from earlier work
S. apiospermum 15848 = details: cited from earlier work
S. apiospermum 451 = details: cited from earlier work
S. apiospermum 4883 = details: cited from earlier work
S. apiospermum 7935 = details: cited from earlier work
S. apiospermum 8353 = details: cited from earlier work
S. prolificans 18389 = details: cited from earlier work
S. prolificans 206 = details: cited from earlier work
S. prolificans 6322 = details: cited from earlier work
S. prolifican 201 = details: cited from earlier work
S. prolifican 13486 = details: cited from earlier work
S. prolifican 7935 = details: cited from earlier work
S. prolifican 15848 = details: cited from earlier work
S. prolifican 8353 = details: cited from earlier work
S. prolifican 451 = details: cited from earlier work
S. prolifican 4883 = details: cited from earlier work
S. prolifican 15849 = details: cited from earlier work
S. prolifican 1121 = details: cited from earlier work
S. apiospermum 1124 = details: cited from earlier work
S. dehoogii = details: cited from earlier work
S. boydii = details: cited from earlier work
S. aurantiacum = details: cited from earlier work
invasive aspergillosis = details: mouse; orally by gavage; not the formulations of the present invention; cited from earlier work
A. fumigatus [4] = details: A. fumigatus infected mice; orally by gavage; cited from earlier work
[5] = tested on: Lomentospora prolificans FMR 3569; details: mice infected with Lomentospora prolificans FMR 3569; relative to voriconazole; orally by gavage; cited from earlier work

Question: Which AUC [1] does the source give for `Cc1cc(-c2ccccc2)c(C(=O)C(=O)Nc2ccc(N3CCN(c4ncc(F)cn4)CC3)cc2)n1C` [compound of Formula I, 2-(1,5-dimethyl-3-phenyl-1H-pyrrol-2-yl)-N-(4-(4-(5-fluoropyrimidin-2-yl)piperazin-1-yl)phenyl)-2-oxoacetamide] here?
Answer: 13500 ng·h/mL

Question: And the AUC [2]?
Answer: 18000 ng·h/mL

Question: What about the “MIC band (RPMI medium)” value (A. niger) of the same compound?
Answer: C (0.01 < MIC ≤ 0.02)

Question: What about the “MIC band (RPMI medium)” value (A. fumigatus [3]) of the same compound?
Answer: C (0.01 < MIC ≤ 0.02)

Question: What about the “MIC band (RPMI medium)” value (A. terreus) of the same compound?
Answer: A (MIC ≤ 0.005)

Question: What about the “MIC band (RPMI medium)” value (A. flavus) of the same compound?
Answer: B (0.005 < MIC ≤ 0.01)

Question: And the “MIC band (RPMI medium)” value (A. terreus 49)?
Answer: A (MIC ≤ 0.005)

Question: What about the “MIC band (RPMI medium)” value (A. fumigatus 210) of the same compound?
Answer: C (0.01 < MIC ≤ 0.02)

Question: And the “MIC band (RPMI medium)” value (S. apiospermum 13486)?
Answer: D (0.02 < MIC ≤ 0.04)

Question: And the “MIC band (RPMI medium)” value (S. apiospermum 15848)?
Answer: D (0.02 < MIC ≤ 0.04)

Question: And the “MIC band (RPMI medium)” value (S. apiospermum 451)?
Answer: B (0.005 < MIC ≤ 0.01)

Question: What about the “MIC band (RPMI medium)” value (S. apiospermum 4883) of the same compound?
Answer: C (0.01 < MIC ≤ 0.02)

Question: And the “MIC band (RPMI medium)” value (S. apiospermum 7935)?
Answer: C (0.01 < MIC ≤ 0.02)

Question: What about the “MIC band (RPMI medium)” value (S. apiospermum 8353) of the same compound?
Answer: B (0.005 < MIC ≤ 0.01)

Question: What about the “MIC band (RPMI medium)” value (S. prolificans 18389) of the same compound?
Answer: C (0.01 < MIC ≤ 0.02)

Question: And the “MIC band (RPMI medium)” value (S. prolificans 206)?
Answer: D (0.02 < MIC ≤ 0.04)

Question: What about the “MIC band (RPMI medium)” value (S. prolificans 6322) of the same compound?
Answer: D (0.02 < MIC ≤ 0.04)

Question: And the “MIC band (RPMI medium)” value (S. prolifican 201)?
Answer: D (0.02 < MIC ≤ 0.04)

Question: And the “MIC band (RPMI medium)” value (S. prolifican 13486)?
Answer: D (0.02 < MIC ≤ 0.04)

Question: What about the “MIC band (RPMI medium)” value (S. prolifican 7935) of the same compound?
Answer: C (0.01 < MIC ≤ 0.02)

Question: What about the “MIC band (RPMI medium)” value (S. prolifican 15848) of the same compound?
Answer: D (0.02 < MIC ≤ 0.04)

Question: What about the “MIC band (RPMI medium)” value (S. prolifican 8353) of the same compound?
Answer: B (0.005 < MIC ≤ 0.01)

Question: What about the “MIC band (RPMI medium)” value (S. prolifican 451) of the same compound?
Answer: B (0.005 < MIC ≤ 0.01)

Question: What about the “MIC band (RPMI medium)” value (S. prolifican 4883) of the same compound?
Answer: C (0.01 < MIC ≤ 0.02)

Question: And the “MIC band (RPMI medium)” value (S. prolifican 15849)?
Answer: E (0.04 < MIC ≤ 0.06)

Question: What about the “MIC band (RPMI medium)” value (S. prolifican 1121) of the same compound?
Answer: A (MIC ≤ 0.005)

Question: And the “MIC band (RPMI medium)” value (S. apiospermum 1124)?
Answer: A (MIC ≤ 0.005)

Question: And the antifungal activity (S. dehoogii)?
Answer: good antifungal activity

Question: And the antifungal activity (S. boydii)?
Answer: good antifungal activity

Question: And the antifungal activity (S. aurantiacum)?
Answer: good antifungal activity

Question: And the “efficacy in murine models of invasive aspergillosis” value (invasive aspergillosis)?
Answer: excellent efficacy

Question: What about the galactomannan indices (A. fumigatus [4]) of the same compound?
Answer: reduce galactomannan indices

Question: And the survival [5]?
Answer: increase survival
